Test results from ChEMBL document CHEMBL3885881, “DrugMatrix”.

Species: Rattus norvegicus
Assay: DrugMatrix - Regimen: Daily Repeat
Format: toxicity, organism-based, Sprague-Dawley
Set-up: regimen Daily Repeat, gender Male, age 6-8 weeks
Conditions: in vivo, po, route oral GAVAGE, vehicle 100 % WATER; for ABSOLUTE BASOPHIL / ABSOLUTE EOSINOPHIL / ABSOLUTE LYMPHOCYTE / ABSOLUTE MONOCYTE / ABSOLUTE SEGMENTED NEUTROPHIL / BASOPHIL / EOSINOPHIL / ERYTHROCYTE COUNT / HEMATOCRIT / HEMOGLOBIN / LEUKOCYTE COUNT / LYMPHOCYTE / MEAN CORPUSCULAR HEMOGLOBIN / MEAN CORPUSCULAR HEMOGLOBIN CONCENTRATION / MEAN CORPUSCULAR VOLUME / MONOCYTE / NEUTROPHIL / NUCLEATED RED BLOOD CELLS / PLATELET COUNT: tissue Blood; for ALANINE AMINOTRANSFERASE / ALBUMIN / ALKALINE PHOSPHATASE / ASPARTATE AMINOTRANSFERASE / BLOOD UREA NITROGEN / CARBON DIOXIDE / CHLORIDE / CHOLESTEROL / CREATINE PHOSPHOKINASE / CREATININE / GLUCOSE / LACTATE DEHYDROGENASE / LIPASE / PHOSPHORUS / POTASSIUM / SODIUM / TOTAL BILIRUBIN / TOTAL PROTEIN / URIC ACID: tissue Plasma
[1] = 0 mg/kg, 72 h, dose level Control, time 3 day
[2] = 0 mg/kg, 120 h, dose level Control, time 5 day
[3] = 3 mg/kg, 72 h, dose level Low, time 3 day

Structure (SMILES): CN(C)CC[C@@H](c1ccc(Cl)cc1)c1ccccn1 [DEXCHLORPHENIRAMINE]
- ABSOLUTE BASOPHIL [1]: 0 CELLS/uL
- ABSOLUTE EOSINOPHIL [1]: 58.83 CELLS/uL
- ABSOLUTE LYMPHOCYTE [1]: 11823.5 CELLS/uL
- ABSOLUTE MONOCYTE [1]: 169 CELLS/uL
- ABSOLUTE SEGMENTED NEUTROPHIL [1]: 815.33 CELLS/uL
- BASOPHIL [1]: 0%
- EOSINOPHIL [1]: 0.5%
- ERYTHROCYTE COUNT [1]: 5.52 x10E6/uL
- HEMATOCRIT [1]: 35.77%
- HEMOGLOBIN [1]: 14.28 G/DL
- LEUKOCYTE COUNT [1]: 12.87 x10E3/uL
- LYMPHOCYTE [1]: 91.67%
- MEAN CORPUSCULAR HEMOGLOBIN [1]: 25.92 pg
- MEAN CORPUSCULAR HEMOGLOBIN CONCENTRATION [1]: 39.95 G/DL
- MEAN CORPUSCULAR VOLUME [1]: 64.85 fL
- MONOCYTE [1]: 1.33%
- NEUTROPHIL [1]: 6.5%
- NUCLEATED RED BLOOD CELLS [1]: 0 /100WBC
- PLATELET COUNT [1]: 1246.17 x10E3/uL
- ALANINE AMINOTRANSFERASE [1]: 66 u/L
- ALBUMIN [1]: 4.25 G/DL
- ALKALINE PHOSPHATASE [1]: 416 u/L
- ASPARTATE AMINOTRANSFERASE [1]: 106.17 u/L
- BLOOD UREA NITROGEN [1]: 12.67 mg/dL
- CARBON DIOXIDE [1]: 31.83 mmol/L
- CHLORIDE [1]: 102.5 MEQ/L
- CHOLESTEROL [1]: 69 mg/dL
- CREATINE PHOSPHOKINASE [1]: 601.83 u/L
- CREATININE [1]: 0.18 mg/dL
- GLUCOSE [1]: 154.5 mg/dL
- LACTATE DEHYDROGENASE [1]: 301.83 u/L
- LIPASE [1]: 11.17 u/L
- PHOSPHORUS [1]: 12.08 mg/dL
- POTASSIUM [1]: 6.12 MEQ/L
- SODIUM [1]: 145.2 MEQ/L
- TOTAL BILIRUBIN [1]: 0.17 mg/dL
- TOTAL PROTEIN [1]: 6.1 G/DL
- URIC ACID [1]: 1.57 mg/dL
- ABSOLUTE BASOPHIL [2]: 0 CELLS/uL
- ABSOLUTE EOSINOPHIL [2]: 19.33 CELLS/uL
- ABSOLUTE LYMPHOCYTE [2]: 12577.83 CELLS/uL
- ABSOLUTE MONOCYTE [2]: 106.33 CELLS/uL
- ABSOLUTE SEGMENTED NEUTROPHIL [2]: 896.5 CELLS/uL
- BASOPHIL [2]: 0%
- EOSINOPHIL [2]: 0.17%
- ERYTHROCYTE COUNT [2]: 5.84 x10E6/uL
- HEMATOCRIT [2]: 36.88%
- HEMOGLOBIN [2]: 14.48 G/DL
- LEUKOCYTE COUNT [2]: 13.6 x10E3/uL
- LYMPHOCYTE [2]: 92.17%
- MEAN CORPUSCULAR HEMOGLOBIN [2]: 24.85 pg
- MEAN CORPUSCULAR HEMOGLOBIN CONCENTRATION [2]: 39.3 G/DL
- MEAN CORPUSCULAR VOLUME [2]: 63.23 fL
- MONOCYTE [2]: 0.83%
- NEUTROPHIL [2]: 6.83%
- NUCLEATED RED BLOOD CELLS [2]: 0 /100WBC
- PLATELET COUNT [2]: 1223.5 x10E3/uL
- ALANINE AMINOTRANSFERASE [2]: 55.33 u/L
- ALBUMIN [2]: 4.08 G/DL
- ALKALINE PHOSPHATASE [2]: 355.5 u/L
- ASPARTATE AMINOTRANSFERASE [2]: 87.67 u/L
- BLOOD UREA NITROGEN [2]: 15.33 mg/dL
- CARBON DIOXIDE [2]: 33.83 mmol/L
- CHLORIDE [2]: 99.67 MEQ/L
- CHOLESTEROL [2]: 72.17 mg/dL
- CREATINE PHOSPHOKINASE [2]: 268.33 u/L
- CREATININE [2]: 0.15 mg/dL
- GLUCOSE [2]: 152.5 mg/dL
- LACTATE DEHYDROGENASE [2]: 212.67 u/L
- LIPASE [2]: 10.83 u/L
- PHOSPHORUS [2]: 11.65 mg/dL
- POTASSIUM [2]: 6.73 MEQ/L
- SODIUM [2]: 142.43 MEQ/L
- TOTAL BILIRUBIN [2]: 0.23 mg/dL
- TOTAL PROTEIN [2]: 6.07 G/DL
- URIC ACID [2]: 1.7 mg/dL
- ABSOLUTE BASOPHIL [3]: 0 CELLS/uL
- ABSOLUTE EOSINOPHIL [3]: 76 CELLS/uL
- ABSOLUTE LYMPHOCYTE [3]: 10621.67 CELLS/uL
- ABSOLUTE MONOCYTE [3]: 75 CELLS/uL
- ABSOLUTE SEGMENTED NEUTROPHIL [3]: 960.67 CELLS/uL
- BASOPHIL [3]: 0%
- EOSINOPHIL [3]: 0.67%
- ERYTHROCYTE COUNT [3]: 5.43 x10E6/uL
- HEMATOCRIT [3]: 35.8%
- HEMOGLOBIN [3]: 14.27 G/DL
- LEUKOCYTE COUNT [3]: 11.73 x10E3/uL
- LYMPHOCYTE [3]: 90.33%
- MEAN CORPUSCULAR HEMOGLOBIN [3]: 26.27 pg
- MEAN CORPUSCULAR HEMOGLOBIN CONCENTRATION [3]: 39.83 G/DL
- MEAN CORPUSCULAR VOLUME [3]: 65.9 fL
- MONOCYTE [3]: 0.67%
- NEUTROPHIL [3]: 8.33%
- NUCLEATED RED BLOOD CELLS [3]: 0 /100WBC
- PLATELET COUNT [3]: 1343.33 x10E3/uL
- ALANINE AMINOTRANSFERASE [3]: 45.67 u/L
- ALBUMIN [3]: 4.17 G/DL
- ALKALINE PHOSPHATASE [3]: 363.67 u/L
- ASPARTATE AMINOTRANSFERASE [3]: 81 u/L
- BLOOD UREA NITROGEN [3]: 12.67 mg/dL
- CARBON DIOXIDE [3]: 31.67 mmol/L
- CHLORIDE [3]: 102.33 MEQ/L
- CHOLESTEROL [3]: 64 mg/dL
- CREATINE PHOSPHOKINASE [3]: 265.33 u/L
- CREATININE [3]: 0.26 mg/dL
- GLUCOSE [3]: 152.33 mg/dL
- LACTATE DEHYDROGENASE [3]: 198 u/L
- LIPASE [3]: 13.33 u/L
- PHOSPHORUS [3]: 13.23 mg/dL
- POTASSIUM [3]: 6.5 MEQ/L
- SODIUM [3]: 145.03 MEQ/L
- TOTAL BILIRUBIN [3]: 0.13 mg/dL
- TOTAL PROTEIN [3]: 5.87 G/DL
- URIC ACID [3]: 1.57 mg/dL
